We go through two compounds from BindingDB's records for doi:10.1186/1471-2091-15-9 (International Centre for Genetic Engineering and …, 2014).

This assay has as its target T1, DNA helicase [35-727] (Plasmodium falciparum, UniProt Q8I3W6).
T1 construct: 35-727
T1 sequence (Q8I3W6 whole entry): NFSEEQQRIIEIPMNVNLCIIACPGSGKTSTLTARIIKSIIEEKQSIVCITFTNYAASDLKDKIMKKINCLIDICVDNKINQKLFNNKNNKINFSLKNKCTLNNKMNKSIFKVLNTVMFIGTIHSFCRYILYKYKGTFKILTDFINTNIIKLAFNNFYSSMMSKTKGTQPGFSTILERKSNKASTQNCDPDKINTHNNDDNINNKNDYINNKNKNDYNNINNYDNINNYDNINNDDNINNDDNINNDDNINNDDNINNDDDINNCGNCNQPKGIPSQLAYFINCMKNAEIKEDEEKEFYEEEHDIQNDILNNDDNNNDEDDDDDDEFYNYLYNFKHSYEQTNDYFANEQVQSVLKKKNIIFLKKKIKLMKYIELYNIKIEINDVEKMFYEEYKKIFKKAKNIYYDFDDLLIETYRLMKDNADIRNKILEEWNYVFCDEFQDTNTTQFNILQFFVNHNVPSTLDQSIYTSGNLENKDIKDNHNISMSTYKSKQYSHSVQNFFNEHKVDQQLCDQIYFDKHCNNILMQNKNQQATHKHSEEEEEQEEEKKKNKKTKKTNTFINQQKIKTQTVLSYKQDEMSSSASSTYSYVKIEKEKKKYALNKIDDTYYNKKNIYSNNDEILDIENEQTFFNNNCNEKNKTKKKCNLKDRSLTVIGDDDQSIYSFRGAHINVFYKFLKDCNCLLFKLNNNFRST
As to the kind of experiment: DNA-Dependent ATPase Assay. The settings on record: pH 8; 37 °C. How it is done:
The hydrolysis of ATP catalyzed by PfUDN was assayed by measuring the formation of Pi from [γ-32P] ATP. The reaction mixture of 10 μl contained [γ-32P] ATP (specific activity 222 TBq. mmol^−1) and cold ATP (1 mM), ATPase buffer (20 mM Tris-HCl, pH 8.0, 8 mM DTT, 1.0 mM MgCl2, 20 mM KCl and 16 μg/ml BSA), purified PfUDN and 50 ng or 100 ng of M13 mp19 ssDNA. The reaction mixtures were incubated at 37°C for 60 min.

Structures can show the parent of a compound that is named as a salt.

Broadly, the IC50 is the point on the concentration scale where inhibition reaches its midpoint. Lower therefore signals greater potency in that assay. As to `CC[n+]1c(-c2ccccc2)c2cc(N)ccc2c2ccc(N)cc21` [AB00053825_07], the IC50 is 3.1 µM.

As for `COc1cccc2c1C(=O)c1c(O)c3c(c(O)c1C2=O)C[C@@](O)(C(C)=O)C[C@@H]3O[C@H]1C[C@H](N)[C@H](O)[C@H](C)O1` [(7S,9S)-9-acetyl-7-[(2R,4S,5S,6S)-4-amino-5-hydroxy-6-methyloxan-2-yl]oxy-6,9,11-trihydroxy-4-methoxy-8,10-dihydro-7H-tetracene-5,12-dione;hydrochloride], the IC50 was determined as 4.4 µM.
